Data set [1] has as its system Mus musculus. As to the kind of experiment: Immunosuppressive activity in BALB/c mouse assessed as reduction in SRBC-induced DTH response at 3 to 30 mg/kg, po administered once daily for 14 days measured 4 hrs post last dose. Format: functional, organism-based.
Data set [2] has as its system Mus musculus. As to the kind of experiment: Antiinflammatory activity in BALB/c mouse assessed as serum IL6 level at 100 mg/kg, po qd for 5 days followed by LPS challenge 1 hr after last compound dose on fifth day and measured 4 hrs post LPS challenge by ELISA method (reference value: 410 +/- 95 pg/mL). Type of data set: functional.
For data set [3], the system named is Mus musculus. Nature of the data set: Antiinflammatory activity in BALB/c mouse assessed as serum nitric oxide level at 10 mg/kg, po qd for 5 days followed by LPS challenge 1 hr after last compound dose on fifth day and measured 4 hrs post LPS challenge by Griess assay (reference value: 6.95 +/- 1.81 uM). Format: functional. On the technique in general: Griess reagent forms a coloured azo dye with nitrite.

Data set [4] has as its system Mus musculus. As to the kind of experiment: Antiinflammatory activity in BALB/c mouse assessed as serum IL6 level at 10 mg/kg, po qd for 5 days followed by LPS challenge 1 hr after last compound dose on fifth day and measured 4 hrs post LPS challenge by ELISA method (reference value: 410 +/- 95 pg/mL). Type of data set: functional. A general note: An ELISA detects its analyte on a solid surface through an enzyme-linked reagent.

A further data set deals with THP-1. Nature of the data set: Inhibition of LPS-induced IL-1beta production in human THP1 cells at 10 uM after 24 hrs. Format: functional. The conditions noted are these: THP-1, 24 h.
Data set [5] can be described thus: Therapeutic index, ratio of cytotoxic IC50 for human THP1 cells by MTT assay to IC50 for inhibition of LPS-induced IL6 production in human THP1 cells. Format: cell-based, THP-1. As to conditions: read-out: Ratio IC50. Background: Tetrazolium dyes change colour on reduction, which living cells bring about.
The subject of data set [6] is Mus musculus. As to the kind of experiment: Antiarthritic activity in DBA/1J mouse collagen-induced arthritis model assessed as reduction in IL-1beta level at 3 to 30 mg/kg, po administered once daily for 49 days starting from onset of disease and measured after 3 to 49 days of disease onset by ELISA method. Format: functional, organism-based.
Data set [7] can be described thus: Solubility in SGF solution. Format: physicochemical.
The test system of data set [8] is Mus musculus. Nature of the data set: Antiarthritic activity in DBA/1J mouse collagen-induced arthritis model assessed as reduction in anticollagen antibody IgG1 level at 3 to 30 mg/kg, po administered once daily for 49 days starting from onset of disease and measured after 49 days of disease onset by ELISA method. Type of data set: functional, organism-based.

The source made the active and inactive calls. The calls are words filed in the database; no cut-off is given here.

For orientation: inhibition means the share of the control response that was lost under treatment. As usually defined, the solubility is the concentration that dissolves in the medium under given conditions. A lower solubility goes with a poorly soluble substance. On to `CCN(CC)Cc1c(O)c(OC)c(O)c2c1C(=O)O[C@@H]1[C@@H](O)[C@H](O)[C@@H](CO)O[C@@H]21`, for which the inhibition entry with Mus musculus [1], in the data set with Mus musculus [6] and with Mus musculus [8] was “Active” in each case. For the same compound, the Activity amounted to 275 pg/mL in the data set on Mus musculus [2], 5 µM in the data set with Mus musculus [3] and 102 pg/mL with Mus musculus [4]. The inhibition at 10 µM with THP-1 came out at 41%. For the same compound, the selectivity ratio in [5] is greater than 400. The same compound had a solubility in data set [7] greater than 1500 µg/mL.

The values above are taken from ChEMBL document CHEMBL3351580, “Pyrano-isochromanones as IL-6 inhibitors: synthesis, in vitro and in vivo antiarthritic activity” (J Med Chem, 2014).
